Measurements: patent US20100099630A1, “Method for improving ventilatory efficiency” (priority 2004, published 2010)

Assays:
Type in all cases: in vivo, human
[1] = test system: patient at risk for COPD (No COPD); experiment: Pulmonary function during moderate sub-maximum step exercise, patient without COPD; conditions: Patient 5, No COPD, post ribose
Description: Four patients presenting with chronic obstructive pulmonary disease were tested for various parameters of pulmonary function as described in Example 1. Baseline measurements of pulmonary function were taken during moderate, sub-maximum step exercise. Patients were instructed to self-administer five grams of ribose four times a day. After eight weeks, pulmonary function was again measured during moderate exercise.
In Table II, the units are: • VD=volume of the dead space; VT=tidal volume in liters per minute. The ratio VD/VT can be expressed as ml/ml. This ratio is taken at the nadir of sub-maximal exercise and is a measure of lung function. • VT=tidal volume in liters; RR=breaths per minute • VT=volume in ml at each inspiration, ti=inspiratory time. VT/ti is the inspiratory drive (effort) in ml/second. • VT=tidal volume in liters at constant body temperature pressure status. • VCO2=liters/minute of expired CO2 • RR=breaths per minute. VT/RR=tidal volume in liters per breath.
Table II illustrates that no one measurement or ratio is predictive of the clinical state of COPD and response to ribose administration. […] One goal of this study was to determine whether the progression of pulmonary dysfunction in such a patient could be slowed or halted over time.

[2] = test system: representative patients (coronary artery disease / CHF cohort); experiment: Exercise testing of representative individual patients (treadmill, step test, drug-driven simulated exercise)
Description: Patients were tested on a treadmill with varying grade, on a step apparatus or with simulated drug-driven exercise simulation for those patients unable to exercise physically. VCO2 and VO2max before and after exercise was measured and VE calculated. The methodology is described in Circulation: www.circulationaha.org Ponikowski et al. Ventilation in Chronic Heart Failure, Feb. 20, 2001, the teachings of which are incorporated by reference. Ventilatory efficiency, VO2 and O2 pulse were assessed up to the anaerobic threshold at baseline and again at eight weeks. Weber function class was also determined based on VO2 at the anaerobic threshold (AT). The results for the first group of test patients (2 females and 13 males) are summarized in Table I. “R” designates D-ribose. Each patient acted as his or her control, that is, results after ribose administration were compared to baseline results. VO2 efficiency is the O2 uptake per unit time. O2 pulse is a measurement of the heart stroke volume. A person, normal weight, was diagnosed with blockage of the coronary arteries with stable angina, not yet progressing to congestive heart failure. […] Using a treadmill, with incremental increase in grade, their VO2 max and VCO2 were determined. Following eight weeks of ribose administration of five grams four times a day, they were retested under the same conditions. Plotting a regression analysis of VO2 versus log V, the VE slope decreased from 60.2 to 45.5. It is considered that a slope of 36.9 or below indicates impairment of ventilatory efficiency. Therefore, while this patient was not in the normal range of ventilatory efficiency, improvement was marked. A second patient, a person of normal weight, self administered five grams of ribose four times a day for eight weeks. At the beginning of the study, their VE slope was 55.7 following nine minutes of submaximal exercise. At the end of the study, their VE slope had decreased to 45.2. This patient also was tested on the step test. The initial test was rated as “good” and the second test was subjectively considered to be “great.” A third patient, an obese person, was on nasal oxygen and was tested with drug-driven simulated exercise. […] Although their VE was now in the normal range, the test results, although improved were not subjectively rated as “good”.

[3] = test system: patient with rheumatoid lung; experiment: Ventilatory efficiency in rheumatoid lung, case report; conditions: person, ribose approximately five grams two to three times a day, within a month
From the text: A person developed rheumatoid arthritis in the 1970's. By 1988, they began to show symptoms of rheumatoid lung, began the use of rescue inhalers such as Albuterol® inhaler and was hospitalized for respiratory distress three times in the next five years. At that point, they were prescribed Advair® steroid inhaler, which relieved their symptoms considerably, although they still required a rescue inhaler several times per week. In 2002, they began the administration of ribose, approximately five grams two to three times a day.

[4] = test system: patients presenting with chronic obstructive pulmonary disease; experiment: Pulmonary function during moderate sub-maximum step exercise, COPD patients; conditions: for VD/VT: post ribose five grams four times a day; for VD/VT / VT/RR / VCO2 / VTBTPS (tidal volume) / VT/ti (inspiratory drive): eight weeks; for VT/RR / VCO2 / VTBTPS (tidal volume) / VT/ti (inspiratory drive): post ribose
Description: Four patients presenting with chronic obstructive pulmonary disease were tested for various parameters of pulmonary function as described in Example 1. Baseline measurements of pulmonary function were taken during moderate, sub-maximum step exercise. Patients were instructed to self-administer five grams of ribose four times a day. After eight weeks, pulmonary function was again measured during moderate exercise. In Table II, the units are: • VD=volume of the dead space; VT=tidal volume in liters per minute. The ratio VD/VT can be expressed as ml/ml. This ratio is taken at the nadir of sub-maximal exercise and is a measure of lung function. • VT=tidal volume in liters; RR=breaths per minute • VT=volume in ml at each inspiration, ti=inspiratory time. VT/ti is the inspiratory drive (effort) in ml/second. • VT=tidal volume in liters at constant body temperature pressure status. • VCO2=liters/minute of expired CO2 • RR=breaths per minute. VT/RR=tidal volume in liters per breath.

[5] = test system: patients having CHF; experiment: Ventilatory efficiency during cardiopulmonary exercise testing, CHF patients
Description: Ventilatory efficiency has been critically shown to be the most powerful, independent predictor of CHF patient survival. Ventilatory efficiency (VE) is determined by the linear, submax relationship between Minute Ventilation (V) and carbon dioxide output (VCO2), V being on the “y axis” and the linear slope being determined using the linear regression model, y=a+bx, “b” representing the slope. The steeper the slope, the worse the ventilation efficiency of the patient. As an exemplar cohort of patients with reduced ventilatory efficiency, patients suffering from CHF were recruited. Patients having CHF were selected according to the following criteria: • Male and female 48-84 years of age. • Ejection fraction 30-72% • NY Class III-IV (severe condition). • Test and control groups matched for pre-operative volume status, cardiac medication, measured risk assessment. The test group was administered D-ribose, 15 grams tid for eight weeks; the controls received 15 grams Dextrose tid. All patients in this group underwent repeated cardiopulmonary exercise using a four-minute sub-maximal step protocol. Patients were tested on a step apparatus. Others in the study were tested on a treadmill with varied grade or on drug-driven exercise simulation for those patients unable to use the other two devices. Symptom-limited peak exercise performance with at least 80-85% of age related maximal heart rate was attempted with each patient. Upper extremity blood pressure was obtained at every two minutes and also at peak exercise. Patients were tested on a treadmill with varying grade, on a step apparatus or with simulated drug-driven exercise simulation for those patients unable to exercise physically. VCO2 and VO2max before and after exercise was measured and VE calculated. The methodology is described in Circulation: www.circulationaha.org Ponikowski et al. Ventilation in Chronic Heart Failure, Feb. 20, 2001, the teachings of which are incorporated by reference. Ventilatory efficiency, VO2 and O2 pulse were assessed up to the anaerobic threshold at baseline and again at eight weeks. Weber function class was also determined based on VO2 at the anaerobic threshold (AT). The results for the first group of test patients (2 females and 13 males) are summarized in Table I. “R” designates D-ribose. Each patient acted as his or her control, that is, results after ribose administration were compared to baseline results. VO2 efficiency is the O2 uptake per unit time. O2 pulse is a measurement of the heart stroke volume.

[6] = FIG. 2, single patient, after eight weeks of ribose supplementation, during exercise

For O=C[C@H](O)[C@H](O)[C@H](O)CO [D-ribose], the VT/RR ([1]; baseline 0.090) was 0.100 liters per breath, the VD/VT ([1]; baseline 0.212) was 0.221 ml/ml and the VCO2 ([1]; baseline 0.990) was 1.26 L/min. For the same compound, the “VTBTPS (tidal volume)” value ([1]; baseline 1.90) was 2.40 L, the “VT/ti (inspiratory drive)” value ([1]; baseline 1636) was 2232 mL/s and the VE slope ([2]; obese person on nasal oxygen, drug-driven simulated exercise, ribose five grams four times daily, eight weeks, baseline 63.0) was 35.2. The “need for nasal oxygen” value ([2]; obese person, ribose five grams four times daily, eight weeks) was “able to discontinue the oxygen”, the “time of simulated exercise” value ([2]; obese person, ribose five grams four times daily, eight weeks, baseline 7.43 minutes) was 11.44 min and the VE slope ([2]; person, coronary artery blockage with stable angina, treadmill, ribose five grams four times a day, eight weeks, baseline 60.2) was 45.5. For the same compound, the VE slope ([2]; person, nine minutes of submaximal exercise, ribose five grams four times a day, eight weeks, baseline 55.7) was 45.2, the “step test subjective rating” value ([2]; person, second test after eight weeks of ribose, initial test rated good) was “great” and the “use of rescue inhaler and exercise tolerance” value [3] was “able to discontinue the use of the rescue inhaler and to exercise more without breathlessness symptoms”. The “slope of respiratory rate plotted against tidal volume” value ([4]; FIG. 1, single patient, after eight weeks of ribose supplementation) was “decreased slope”, the VE value [4, 6] was 42 L/min and the tidal volume [4, 6] was 0.9 L. The VD/VT ([4]; Patient 1 (asthmatic with COPD), nadir of sub-maximal exercise, baseline 0.304) was 0.253 ml/ml, the VT/RR ([4]; Patient 1, baseline 0.059) was 0.065 liters per breath and the VCO2 ([4]; Patient 1, baseline 1.038) was 1.050 L/min. The “VTBTPS (tidal volume)” value ([4]; Patient 1, baseline 1.54) was 1.92 L, the “VT/ti (inspiratory drive)” value ([4]; Patient 1, baseline 1492) was 1827 mL/s and the VD/VT ([4]; Patient 2 (COPD), baseline 0.439) was 0.303 ml/ml. The VT/RR ([4]; Patient 2, baseline 0.036) was 0056 liters per breath, the VCO2 ([4]; Patient 2, baseline 0.460) was 0.460 L/min and the “VTBTPS (tidal volume)” value ([4]; Patient 2, baseline 0.830) was 1.04 L. For the same compound, the “VT/ti (inspiratory drive)” value ([4]; Patient 2, baseline 779) was 752 mL/s, the VD/VT ([4]; Patient 3 (COPD), baseline 0.198) was 0.221 ml/ml and the VT/RR ([4]; Patient 3, baseline 0.041) was 0.046 liters per breath. The VCO2 ([4]; Patient 3, baseline 0.280) was 0.454 L/min, the “VTBTPS (tidal volume)” value ([4]; Patient 3, baseline 0.614) was 0.873 L and the “VT/ti (inspiratory drive)” value ([4]; Patient 3, baseline 373) was 706 mL/s. For the same compound, the VD/VT ([4]; Patient 4 (COPD), baseline 0.475) was 0.280 ml/ml, the VT/RR ([4]; Patient 4, baseline 0.013) was 0.018 liters per breath and the VCO2 ([4]; Patient 4, baseline 0.310) was 0.814 L/min. For the same compound, the “VTBTPS (tidal volume)” value ([4]; Patient 4, baseline 0.550) was 0.800 L, the “VT/ti (inspiratory drive)” value ([4]; Patient 4, baseline 937) was 1590 mL/s and the VO2 uptake efficiency ([5]; Post-R: D-ribose 15 grams tid for eight weeks, 2 females and 13 males, Pre-R 1.00 +/− 0.28, p < 0.028) was 1.30 +/− 0.28. The O2 pulse ([5]; Post-R: D-ribose 15 grams tid for eight weeks, 2 females and 13 males, Pre-R 7.45 +/− 1.8, p < 0.05) was 9.04 +/− 1.9, the Ventilatory efficiency ([5]; Post-R: D-ribose 15 grams tid for eight weeks, 2 females and 13 males, up to anaerobic threshold, Pre-R 50.6 +/− 9.8, p < 0.01) was 41.6 +/− 6.4 and the “improvement of VE” value ([5]; after eight weeks of D-ribose versus baseline) was “about 20%”. The Weber functional class ([5]; based on VO2 at the anaerobic threshold, several of the patients, after eight weeks) was “reclassified into a higher, that is, less severe, Weber functional class”.
